Row | Compound | melting point
1 | NC(=O)c1cccc(F)c1I | 189 to 191 °C
2 | N#CCC(=O)Nc1ccccn1 | 160 to 162 °C
3 | Cn1c(=O)n(CC(=O)O)c2ccccc21 | 202 to 204 °C
4 | CCO/C=C(\C#N)c1nc(C)cs1 | 70 to 72 °C
5 | Nc1ccccc1SCC(O)c1ccccc1 (stereo not drawn) | 61 to 63 °C
6 | O=c1ccc2cc(S(=O)(=O)Cl)ccc2[nH]1 | 278 to 280 °C
7 | CC(C)CC1NC(C(=O)O)CS1 (stereo not drawn) | 159 to 161 °C
8 | Cc1n[nH]c2ncc([N+](=O)[O-])cc12 | 189 to 191 °C
9 | COc1ccccc1OCCC(=O)O | 133 to 135 °C
10 | O=C(CCl)c1c(-c2ccc(F)cc2)[nH]c2ccccc12 | 158 to 160 °C
11 | Nc1ccc(N2CCC(O)CC2)cc1 | 171 to 173 °C
12 | Cc1nc2ccccc2c(N)c1C(C)C | 123 to 125 °C
13 | O=C(NCCO)c1cccc(S(=O)(=O)N2CCCCC2)c1 | 65 to 68 °C
14 | O=c1c2ccccc2nnn1CCl | 129 to 133 °C
15 | COC(=O)C(=O)CC(=O)c1ccc(C)cc1 | 86 to 88 °C
16 | Cc1cc(-c2cc(C(=O)O)c3c(C)noc3n2)c(C)s1 | 256 to 258 °C
17 | O=C(O)c1ccc(Cl)c(S(=O)(=O)N2CCCC2)c1 | 239 to 241 °C
18 | O=C(O)c1coc(-c2ccccc2)n1 | 209 to 211 °C
19 | Cn1c(-c2ccccn2)cccc1=O | 66 to 68 °C
20 | CC(Nc1ccc(C(=O)O)cc1[N+](=O)[O-])c1ccccn1 (stereo not drawn) | 204 to 206 °C
21 | CS(=O)(=O)c1ccsc1N | 90 to 92 °C
22 | Nc1cc(-n2nnnc2C2CC2)ccc1F | 112 to 114 °C
23 | Clc1ccc(C2CNCCO2)cc1 (stereo not drawn) | 55 to 57 °C
24 | CC(=O)c1csc(C(=O)O)c1 | 149 to 151 °C
25 | O=C(O)CC1(O)CCCC1 | 72 to 74 °C

Row | Compound | melting point
26 | Cc1ccncc1C(=O)O | 199 to 201 °C
27 | O=C(CCl)Nc1ccc(C(=O)O)cc1 | 230 to 232 °C
28 | Clc1noc(-c2ccoc2)n1 | 48 to 50 °C
29 | CCOc1cccc(C(N)=S)c1 | 118 to 120 °C
30 | ClCCc1nnnn1-c1ccccc1 | 45 to 47 °C
31 | CC(O)(C(=O)O)c1cccc2ccccc12 (stereo not drawn) | 145 to 147 °C
32 | Brc1ccccc1Oc1ccncc1 | 68 to 70 °C
33 | O=c1[nH]c(-c2ccccc2F)cs1 | 187 to 189 °C
34 | COc1ccc2c(c1)C=C(C(=O)O)CO2 | 184 to 186 °C
35 | O=C(O)CCNS(=O)(=O)c1ccccc1 | 110 to 114 °C
36 | CC(=O)c1cc(N)cc(C(C)=O)c1 | 139 to 141 °C
37 | O=C1NCC(=O)N2CCOCC12 (stereo not drawn) | 170 to 172 °C
38 | Cc1ccccc1-n1ccnc1S | 245 to 247 °C
39 | Fc1ccc(NCc2cccnc2)cc1 | 89 to 91 °C
40 | N#Cc1ccc(NC(=O)CCCl)cc1 | 152 to 154 °C
41 | CN(C)C(=S)Oc1cccc(C=O)c1 | 65 to 67 °C
42 | COc1ccc(C(=O)Nc2ccc(C(=O)O)cc2)cc1OC | 259 to 261 °C
43 | O=C(O)c1cnc2ccccn2c1=O | 251 to 253 °C
44 | CC(Cl)C(=O)Nc1cccc(I)c1 (stereo not drawn) | 94 to 96 °C
45 | CC1(c2ccc(N)cc2)NC(=O)NC1=O (stereo not drawn) | 187 to 189 °C
46 | O=C1CC2(CCSC2)C(=O)N1 (stereo not drawn) | 135 to 137 °C
47 | CCOC(=O)Cn1ncc2ccccc21 | 34 to 36 °C
48 | Cc1nc(N)c(Cl)cc1Cl | 136 to 138 °C
49 | N#CC(C#N)=C1Nc2ccccc2N=C1Cl | 264 to 266 °C
50 | Cc1ccc(Nc2ncccc2N)cc1 | 144 to 146 °C

Row | Compound | melting point
51 | NS(=O)(=O)c1nccs1 | 119 to 121 °C
52 | Nc1ccc(NC(=O)c2cccs2)cc1 | 166 to 168 °C
53 | CC(Cl)c1nnc(-c2cccs2)o1 (stereo not drawn) | 211 to 213 °C
54 | COC(=O)c1ccc(S(=O)(=O)Cl)c(Br)c1 | 82 to 84 °C
55 | CCOc1cc(CC#N)ccc1OCC(F)(F)F | 40 to 42 °C
56 | COc1ccc(C(=O)C2CCOCC2)cc1 | 103 to 105 °C
57 | NC(=NO)C1CCCc2ccccc21 (stereo not drawn) | 133 to 135 °C
58 | CC(=O)c1cc(CCC(=O)O)oc1C | 90 to 95 °C
59 | O=C(O)C=CC(=O)NCc1cccnc1 | 92 to 94 °C
60 | COc1ccc(-c2n[nH]c(S)nc2=O)cc1 | 284 to 286 °C
61 | Sc1nnc(N2CCOCC2)n1Cc1ccco1 | 151 to 153 °C
62 | O=C(O)c1occc1CS(=O)(=O)c1ccc(Br)cc1 | 211 to 213 °C
63 | O=C(O)C1CCC(=O)N(Cc2ccccc2)C1c1ccccc1 (stereo not drawn) | 164 to 166 °C
64 | O=C(O)C1CCCN1C(=O)Cc1ccccc1 (stereo not drawn) | 147 to 149 °C
65 | Nc1ccc(C(=O)NC2CCOCC2)cc1 | 217 to 219 °C
66 | Nc1cccc(C(=O)N2CCC(O)CC2)c1 | 128 to 130 °C
67 | NC(=O)CNCc1ccc(OCc2ccccc2)cc1 | 140 to 142 °C
68 | COC(=O)c1ccn2c(I)cnc2c1 | 209 to 211 °C
69 | O=C1CCc2c1ccc(Cl)c2Cl | 82 to 84 °C
70 | CC(C)NC(=S)N(C)C | 73 to 75 °C
71 | O=C(O)C1CC(=O)N(C2CCCC2)C1 (stereo not drawn) | 136 to 138 °C
72 | O=c1c2ccccc2ncn1CCCl | 124 to 126 °C
73 | O=Cc1cc(Cl)cc([N+](=O)[O-])c1O | 105 to 107 °C
74 | O=C(O)c1c(-n2cccc2)sc2c1CCCC2 | 158 to 162 °C
75 | CCN(CC)S(=O)(=O)c1ccc(NC)c(N)c1 | 119 to 121 °C

Row | Compound | melting point
76 | Cc1cc(N)ccc1N1CCCC1=O | 159 to 161 °C
77 | Cc1ccc(-c2nnc(-c3ccc(C(=O)O)cc3)o2)cc1 | 250 to 252 °C
78 | O=C(OCc1ccc(Br)cc1)c1ccccc1O | 69 to 71 °C
79 | Cc1sc2nc(C(C)Cl)[nH]c(=O)c2c1C (stereo not drawn) | 215 to 217 °C
80 | CC(C)(C)OC(=O)N1CC(=O)NC2CNCCC21 (stereo not drawn) | 144 to 146 °C
81 | COc1ccc(NS(=O)(=O)c2cc(N)ccc2OC)cc1 | 133 to 135 °C
82 | NNC(=O)C(=O)NC1CC1 | 181 to 183 °C
83 | O=C(O)c1noc(-c2cccc(F)c2F)n1 | 113 to 115 °C
84 | COc1cc(C(=O)O)n(-c2ncccc2Cl)n1 | 242 to 244 °C
85 | CCNc1ccc(S(=O)(=O)C(F)(F)F)cc1 | 63 to 65 °C
86 | CCOC(=O)CO/N=C(\C(=O)O)c1cc[nH]n1 | 128 to 130 °C
87 | NC(Cn1cnc2ccccc21)c1ccc(F)cc1 (stereo not drawn) | 86 to 88 °C
88 | NS(=O)(=O)c1ccc(-n2cccn2)c(F)c1 | 190 to 192 °C
89 | CC1CC(C)CC2(C1)NC(=O)NC2=O (stereo not drawn) | 299 to 301 °C
90 | CS(=O)(=O)c1ccc(OCCCC(=O)O)cc1 | 150 to 152 °C
91 | Nc1nc2ccc(Br)cn2n1 | 183 to 185 °C
92 | OCc1ccc2[nH]nnc2c1 | 146 to 148 °C
93 | OCc1ncc[nH]1 | 99 to 101 °C
94 | Cc1nc(-c2cc(C(=O)O)n(C)c2)cs1 | 171 to 173 °C
95 | COc1cccc(-n2cnnc2S)c1 | 167 to 169 °C
96 | Cc1noc2ncc(N)cc12 | 179 to 181 °C
97 | Cc1noc2nc(C3CC3)cc(C(=O)O)c12 | 215 to 217 °C
98 | CC(C)CC(C)n1nccc1N (stereo not drawn) | 55 to 57 °C
99 | C#Cc1cccc(NC(=O)CBr)c1 | 118 to 120 °C
100 | CNS(=O)(=O)c1cc(C(=O)O)ccc1Cl | 226 to 228 °C

Row | Compound | melting point
101 | Nc1cc(S(=O)(=O)Nc2ccccc2Cl)ccc1Cl | 89 to 93 °C
102 | COc1cc(N)cc(Br)c1 | 39 to 41 °C
103 | O=C(CCl)Nc1cc(C(F)(F)F)ccc1N1CCCC1 | 271 to 272 °C
104 | CC(C)Oc1ccccc1CC(=O)O | 92 to 94 °C
105 | Cc1cc(N)n(-c2cc(C(F)(F)F)ccc2Cl)n1 | 159 to 161 °C
106 | COCc1nnc(NN)s1 | 109 to 111 °C
107 | CC(C)c1ccsc1C(=O)O | 97 to 99 °C
108 | Cc1cc(Br)cc2c1NC(=O)C2 | 224 to 226 °C
109 | CC1(CCCC(=O)O)NC(=O)NC1=O (stereo not drawn) | 149 to 151 °C
110 | O=C1NCCNC1c1cccs1 (stereo not drawn) | 111 to 113 °C
111 | O=C1CN(C2CCCC2)C(=O)N1 | 148 to 150 °C
112 | O=C1CCCN1C1CCNCC1 | 84 to 86 °C
113 | COc1ccc2c(c1)C(=O)CCO2 | 44 to 46 °C
114 | Nc1ccc(Br)c(I)c1 | 74 to 76 °C
115 | Cc1cc(F)c(N)c(I)c1 | 32 to 34 °C
116 | NC(=O)C(Cl)c1cccc(Br)c1 (stereo not drawn) | 109 to 111 °C
117 | Fc1c(Br)cncc1Br | 97 to 99 °C
118 | O=C1C=CC(=O)N1c1cccc(C(F)(F)F)c1 | 67 to 69 °C
119 | Oc1ccc(OC2CCCC2)cc1 | 50 to 52 °C
120 | CC(C)(C)c1ccc(CCC(=O)O)cc1 | 105 to 107 °C
121 | CCc1ccc2c(c1)C(=O)C(=O)N2C | 96 to 98 °C
122 | CN(C)c1nccc(Cl)n1 | 79 to 81 °C
123 | Cn1cc(N2CCNCC2)cn1 | 68 to 70 °C
124 | Cc1n[nH]c(=O)c(C(=O)O)c1C | 179 to 181 °C
125 | O=C(O)C1=Cc2cc(F)ccc2OC1 | 209 to 211 °C

Row | Compound | melting point
126 | O=S(=O)(O)C1CCCNC1 (stereo not drawn) | 304 to 306 °C
127 | Cc1ccc(-c2nc(C(=O)O)cs2)c(C)c1 | 129 to 131 °C
128 | Cc1ccc(C)c2sc(N)nc12 | 151 to 153 °C
129 | O=C(O)C1(c2cccc(Br)c2)CCCCC1 | 164 to 166 °C
130 | Cc1cccc(C(=O)N2CCSCC2)c1O | 88 to 90 °C
131 | O=C(O)C1CCN(C(=O)c2ccc3[nH]ncc3c2)CC1 | 246 to 248 °C
132 | O=C1C(Br)CCCN1c1ccc(OC(F)F)cc1 (stereo not drawn) | 72 to 74 °C
133 | O=C(O)C1CC1c1ccncc1 (stereo not drawn) | 228 to 230 °C
134 | O=C1CCS(=O)CC1 | 62 to 64 °C
135 | Nc1nnc(-c2cnn(-c3ccccc3)c2)o1 | 283 to 285 °C
136 | NC(=O)c1c(N)sc2c1CCN(Cc1ccccc1)C2 | 76 to 78 °C
137 | CC(=O)Nc1ccc(OCC2CO2)cc1 (stereo not drawn) | 117 to 119 °C
138 | O=C1CCC(c2ccccc2)CCN1 (stereo not drawn) | 194 to 196 °C
139 | CNC1CCN(C2CCOCC2)CC1 | 32 to 34 °C
140 | Nc1cc(F)c(-n2ccnc2)c(F)c1 | 159 to 161 °C
141 | O=[N+]([O-])c1ccc(OCC(F)(F)F)nc1 | 41 to 43 °C
142 | Cc1noc(N)c1S(N)(=O)=O | 131 to 133 °C
143 | CC(=O)N1CCCc2cc(S(=O)(=O)Cl)ccc21 | 127 to 129 °C
144 | COc1ccc(Br)c(C(N)=S)c1 | 142 to 144 °C
145 | O=C(O)c1ccc(CN2C(=O)C=CC2=O)cc1 | 163 to 165 °C
146 | O=C(Nc1ccccc1)OCCBr | 64 to 66 °C
147 | CCOC(=O)c1ccc(NC(=O)CCl)cc1 | 38 to 40 °C
148 | Cc1noc(C)c1CCC(=O)O | 109 to 111 °C

— a melting point compilation (Tetko et al.)
